Measured values published in ChEMBL document CHEMBL4316582, “Nitro-Group-Containing Drugs” (J Med Chem, 2019).
Converted amounts (≈) assume the structure as drawn.

Key:
[1] = system: SK-OV-3; assay: Cytotoxicity against human SKOV3 cells; type: functional, cell-based
[2] = system: Mycobacterium tuberculosis; assay: Antitubercular activity against Mycobacterium tuberculosis H37Ra after 8 days by visual analysis; type: functional; conditions: 192 h
[3] = target: T1, Quinone oxidoreductase (Homo sapiens, UniProt Q08257); assay: Inhibition of human Quinone oxidoreductase
T1 sequence (Q08257 whole entry): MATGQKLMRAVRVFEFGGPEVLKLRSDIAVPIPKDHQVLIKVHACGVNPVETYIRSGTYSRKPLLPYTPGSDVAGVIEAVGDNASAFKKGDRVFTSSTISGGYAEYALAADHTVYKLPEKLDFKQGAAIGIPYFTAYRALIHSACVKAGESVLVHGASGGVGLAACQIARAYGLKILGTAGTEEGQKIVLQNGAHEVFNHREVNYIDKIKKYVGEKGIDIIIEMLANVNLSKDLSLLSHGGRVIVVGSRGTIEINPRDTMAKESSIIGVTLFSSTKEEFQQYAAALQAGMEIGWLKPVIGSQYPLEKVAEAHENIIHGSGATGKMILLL

[4] = system: NCI-H460; assay: Antiproliferative activity against human NCI-H460 cells; type: functional, cell-based
[5] = system: NCI-H460; assay: Antiproliferative activity against human NCI-H460 cells in presence of O2; type: functional, cell-based
[6] = system: NCI-H460; assay: Antiproliferative activity against human NCI-H460 cells in presence of N2; type: functional, cell-based
[7] = system: NCI-H460; assay: Cytotoxicity against human NCI-H460 cells assessed as reduction in cell viability after 2 hrs by Alamar blue assay; type: functional, cell-based; conditions: NCI-H460, 2 h
[8] = system: HT-29; assay: Cytotoxicity against human HT-29 cells assessed as reduction in cell viability after 2 hrs by Alamar blue assay; type: functional, cell-based; conditions: HT-29, 2 h
[9] = target: Epidermal growth factor receptor (Homo sapiens, UniProt P00533); assay: Inhibition of erbB1 (unknown origin) using FRET-capable peptide substrate by FRET assay
[10] = Cytotoxicity against human MiaPaCa cells assessed as reduction in cell viability after 2 hrs by Alamar blue assay; type: functional, cell-based; conditions: MIA PaCa-2, 2 h
[11] = system: Mycobacterium tuberculosis; assay: Antitubercular activity against Mycobacterium tuberculosis; type: functional
[12] = system: Mycobacterium tuberculosis; assay: Antitubercular activity against drug-sensitive Mycobacterium tuberculosis; type: functional
[13] = system: NCI-H460; assay: Cytotoxicity against human NCI-H460 cells assessed as reduction in cell viability after 2 hrs under hypoxic conditions by Alamar blue assay; type: functional, cell-based; conditions: NCI-H460, 2 h
[14] = system: NCI-H460; assay: Cytotoxicity against human NCI-H460 cells assessed as reduction in cell viability after 2 hrs under normoxic conditions by Alamar blue assay; type: functional, cell-based; conditions: NCI-H460, 2 h
[15] = system: NCI-H460; assay: Ratio of IC50 for antiproliferative activity against human NCI-H460 cells in presence of O2 to antiproliferative activity against human NCI-H460 cells in presence of N2; type: functional
[16] = system: Hep 3B2; assay: Cytotoxicity against human Hep3B cells after 24 hrs by MTS assay; type: functional, cell-based
[17] = system: Hep 3B2; assay: Cytotoxicity against human Hep3B cells after 24 hrs under hypoxic condition by MTS assay; type: functional, cell-based
[18] = target: T2, Oxygen-insensitive NAD(P)H nitroreductase (Escherichia coli K-12, UniProt P38489); assay: Susbtrate activity at Escherichia coli nitroreductase assessed as half life; type: ADME
T2 sequence (P38489 whole entry): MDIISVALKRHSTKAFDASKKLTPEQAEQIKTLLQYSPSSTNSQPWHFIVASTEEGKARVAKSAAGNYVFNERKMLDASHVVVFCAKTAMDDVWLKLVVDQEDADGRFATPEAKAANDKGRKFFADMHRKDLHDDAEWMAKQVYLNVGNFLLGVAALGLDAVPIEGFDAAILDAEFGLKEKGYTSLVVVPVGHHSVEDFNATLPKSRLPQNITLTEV

[19] = Inhibition of Escherichia coli nitroreductase F179 mutant
[20] = target: T2, Oxygen-insensitive NAD(P)H nitroreductase; assay: Inhibition of Escherichia coli nitroreductase expressed in human HCT116 cells; type: cell-based

Chain of Epidermal growth factor receptor (P00533 whole entry): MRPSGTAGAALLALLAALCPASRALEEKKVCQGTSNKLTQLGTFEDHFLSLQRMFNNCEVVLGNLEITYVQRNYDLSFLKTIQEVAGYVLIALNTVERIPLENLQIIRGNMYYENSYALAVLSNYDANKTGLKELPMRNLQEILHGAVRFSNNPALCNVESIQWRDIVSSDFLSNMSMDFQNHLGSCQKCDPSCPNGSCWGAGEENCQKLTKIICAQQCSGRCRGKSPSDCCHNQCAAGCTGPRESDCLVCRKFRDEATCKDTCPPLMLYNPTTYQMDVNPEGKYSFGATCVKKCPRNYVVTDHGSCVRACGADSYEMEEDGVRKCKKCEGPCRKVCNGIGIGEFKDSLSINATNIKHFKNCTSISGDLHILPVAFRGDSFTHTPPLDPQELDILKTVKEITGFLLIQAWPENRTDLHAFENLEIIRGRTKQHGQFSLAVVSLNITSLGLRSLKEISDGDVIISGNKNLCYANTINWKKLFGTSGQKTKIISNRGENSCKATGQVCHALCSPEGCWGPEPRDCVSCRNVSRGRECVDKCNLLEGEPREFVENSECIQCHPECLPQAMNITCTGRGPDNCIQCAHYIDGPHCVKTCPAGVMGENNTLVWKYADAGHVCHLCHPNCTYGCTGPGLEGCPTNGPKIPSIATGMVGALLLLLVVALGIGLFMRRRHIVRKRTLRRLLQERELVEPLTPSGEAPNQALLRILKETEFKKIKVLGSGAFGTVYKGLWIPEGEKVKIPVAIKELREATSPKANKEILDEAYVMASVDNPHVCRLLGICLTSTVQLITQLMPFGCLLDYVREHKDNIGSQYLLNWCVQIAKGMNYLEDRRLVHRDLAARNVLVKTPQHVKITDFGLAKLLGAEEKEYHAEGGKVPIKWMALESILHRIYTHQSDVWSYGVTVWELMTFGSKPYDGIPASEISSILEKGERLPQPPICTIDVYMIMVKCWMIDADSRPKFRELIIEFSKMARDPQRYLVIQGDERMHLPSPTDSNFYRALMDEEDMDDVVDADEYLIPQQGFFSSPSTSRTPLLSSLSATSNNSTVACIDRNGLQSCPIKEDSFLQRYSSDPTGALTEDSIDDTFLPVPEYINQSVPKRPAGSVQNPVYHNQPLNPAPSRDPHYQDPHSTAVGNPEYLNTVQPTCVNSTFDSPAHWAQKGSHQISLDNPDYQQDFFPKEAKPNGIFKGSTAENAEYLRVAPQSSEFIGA

## CC(OP(N)(=O)N(CCCl)CCCl)c1ccc([N+](=O)[O-])cc1 (stereo unspecified)
[1]
  IC50: 1800 nM

## COc1cc([N+](=O)[O-])ccc1COP(N)(=O)N(CCCl)CCCl (stereo unspecified)
[1]
  IC50: 1800 nM

## COc1cc(COP(N)(=O)N(CCCl)CCCl)ccc1[N+](=O)[O-] (stereo unspecified)
[1]
  IC50: 3100 nM

## Cc1cc(COP(N)(=O)N(CCCl)CCCl)ccc1[N+](=O)[O-] (stereo unspecified)
[1]
  IC50: 3300 nM

## NP(=O)(OCc1ccc([N+](=O)[O-])cc1)N(CCCl)CCCl (stereo unspecified)
[1]
  IC50: 1100 nM

## COc1ccc(CNC(=O)c2ccc([N+](=O)[O-])o2)cc1OC
[2]
  MIC: 0.2 µM (≈ 0.0613 µg/mL)

## O=[N+]([O-])c1ccc(C2CCOP(=O)(N(CCCl)CCCl)N2)cc1 (stereo unspecified)
[3]
  IC50: 48000 nM

## COC(=O)c1cc(COP(N)(=O)N(CCCl)CCCl)ccc1[N+](=O)[O-] (stereo unspecified)
[1]
  IC50: 2100 nM

## Cn1c(COP(=O)(N(CCCl)CCCl)N(CCCl)CCCl)ccc1[N+](=O)[O-]
[4]
  IC50: > 1000 nM
[5]
  IC50: 850 nM
[6]
  IC50: 7 nM

## CC#Cc1c(OC)ccc2c(C(=O)c3cc(OC)c(OC)c(OC)c3)nn(C[N+](C)(C)Cc3c(CC)nc([N+](=O)[O-])n3C)c12
[7]
  IC50: 42 nM
[8]
  IC50: 9 nM

## C[N+](C)(C/C=C/C(=O)Nc1ccc2ncnc(Nc3cccc(Br)c3)c2c1)Cc1ccc([N+](=O)[O-])cc1
[9]
  IC50: 0.22 to 0.56 nM

## CC#Cc1c(OC)ccc2c(C(=O)c3cc(OC)c(OC)c(OC)c3)nn(C[N+](C)(C)Cc3c(-c4ccccc4)nc([N+](=O)[O-])n3C)c12
[7]
  IC50: 12 nM
[8]
  IC50: 6 nM
[10]
  IC50: 16 nM

## O=[N+]([O-])C1CN2C[C@H](OCc3ccc(OC(F)(F)F)cc3)COC2=N1 (stereo partly specified)
[11]
  MIC: < 2.8 µM
[12]
  MIC: 0.039 to 0.531 µg/mL (≈ 0.108 to 1.47 µM)

## [O-]/[N+](O)=C1/CN2C[C@H](OCc3ccc(OC(F)(F)F)cc3)COC2=N1
[11]
  MIC: < 2.8 µM
[12]
  MIC: 0.039 to 0.531 µg/mL (≈ 0.108 to 1.47 µM)

## CC#Cc1c(OC)ccc2c(C(=O)c3cc(OC)c(OC)c(OC)c3)nn(C[N+](C)(C)Cc3c(Br)nc([N+](=O)[O-])n3C)c12
[7]
  IC50: 28 nM
[8]
  IC50: 10 nM
[10]
  IC50: 28 nM

## COc1cccc2c1C(=O)c1c(O)c3c(c(O)c1C2=O)C[C@@](O)(C(C)=O)C[C@@H]3O[C@H]1C[C@H](NCCCCn2ccnc2[N+](=O)[O-])[C@H](O)[C@H](C)O1
[13]
  IC50: 4 nM
[14]
  IC50: 5700 nM

## NC(=O)c1cc([N+](=O)[O-])cnc1N1CC1
[15]
  Ratio IC50: 21.3
[5]
  IC50: 198000 nM
[6]
  IC50: 9300 nM

## CC#Cc1c(OC)ccc2c(C(=O)c3cc(OC)c(OC)c(OC)c3)nn(C[N+](C)(C)Cc3c(-c4ccc(F)cc4)nc([N+](=O)[O-])n3C)c12
[7]
  IC50: 31 nM
[8]
  IC50: 25 nM
[10]
  IC50: 25 nM

## Cn1cc([N+](=O)[O-])nc1C[N+](C)(C)C/C=C/C(=O)Nc1ccc2ncnc(Nc3cccc(Br)c3)c2c1
[9]
  IC50: 0.22 to 0.56 nM

## COc1ccc(C[C@@H](C)[C@@H](C)Cc2ccc(OC)c(OCCOCCOCCOCCn3ccnc3[N+](=O)[O-])c2)cc1OC
[16]
  IC50: 12600 nM
[17]
  IC50: 53200 nM

## NC(=O)c1ccnc(N2CC2)c1[N+](=O)[O-]
[15]
  Ratio IC50: 52.5
[5]
  IC50: 142000 nM
[6]
  IC50: 2700 nM

## O=[N+]([O-])c1ccc2c(c1)NP(=O)(N(CCCl)CCCl)NC2 (stereo unspecified)
[18]
  half-life: 7.8 min

## Cn1ncc([N+](=O)[O-])c1C[N+](C)(C)C/C=C/C(=O)Nc1ccc2ncnc(Nc3cccc(Br)c3)c2c1
[9]
  IC50: 0.22 to 0.56 nM

## O=[N+]([O-])c1ccc2c(c1)OP(=O)(N(CCCl)CCCl)NC2 (stereo unspecified)
[18]
  half-life: 11 min
[19]
  IC50: 61000 nM
[20]
  IC50: 48000 nM
[3]
  IC50: 48000 nM

## COc1cccc2c1C(=O)c1c(O)c3c(c(O)c1C2=O)C[C@@](O)(C(C)=O)C[C@@H]3O[C@H]1C[C@H](N(COCCn2ccnc2[N+](=O)[O-])COCCn2ccnc2[N+](=O)[O-])[C@H](O)[C@H](C)O1
[13]
  IC50: 50 nM
[14]
  IC50: 20000 nM
